Source: US20220227804A1, “COMBINATION OF A POLYHYDROXYLATED BILE ACID AND A FARNESOID X RECEPTOR AGONIST” (QING BILE THERAPEUTICS INC., priority 2019, published 2022)
Where two headings read alike, the source gives them in different places.

Legend:
[1] = tested on: Mdr2^−/− mice; test: First study: dietary supplementation of Mdr2−/− mice (mouse model of human PSC and PFIC) for 17 weeks; conditions: mono-treatment, 0.03% OCA or 1% THBA (w/w) in diet, from 3 to 20 weeks of age, female mice
[2] = tested on: Mdr2^−/− mice; conditions: mouse, in vivo

**Q.** With `CC[C@H]1[C@@H](O)[C@@H]2[C@H](CC[C@]3(C)[C@@H]([C@H](C)CCC(=O)O)CC[C@@H]23)[C@@]2(C)CC[C@@H](O)C[C@@H]12` [OCA, Obeticholic acid, reference compound] as the compound, how does the adverse effects [1] read?
**A.** no significant, obvious, adverse effects

**Q.** How did the “liver indicator profiles (bilirubin, ALT, ALP, total bile acids in plasma)” value [1] turn out when `C[C@H](CCC(=O)O)[C@H]1CC[C@H]2[C@@H]3[C@H](O)[C@H](O)[C@@H]4C[C@H](O)CC[C@]4(C)[C@H]3C[C@H](O)[C@]12C` [THBA, 3α, 6α, 7α, 12α-tetrahydroxy-5β-cholan-24-oic acid] was run?
**A.** significantly improved liver indicator profiles

**Q.** What about the adverse effects [2] of the same compound?
**A.** no significant, obvious, adverse effects
